Measurements taken from paper PMC4791286, “Puquitinib mesylate, an inhibitor of phosphatidylinositol 3-kinase p110δ, for treating relapsed or refractory non-Hodgkin's lymphoma” (Oncotarget, 2015).
“And” between values parts separate entries of the source, which are not always exact repeats. Equal entries are not always repeated. Structures can show the parent of a compound that is named as a salt. Where two headings read alike, the source gives them in different places.

Key:
p110δ = test system: p110δ; parameters: method as in PMID 20959606; conditions: cited from earlier work
MCL = test system: MCL; parameters: method as in PMID 24615778; conditions: n = 40; cited from earlier work
[1] = test system: indolent non-Hodgkin lymphoma (iNHL); parameters: method as in PMID 24615776; conditions: cited from earlier work
KDR = test system: KDR; parameters: method as in earlier work; conditions: ref unpublished information, personal communication with Wei Mao on January 1, 2013; read-out: IC50, receptor tyrosine kinase KDR; cited from earlier work
[2] = test system: xenografts with cancer of the colon, stomach, or lung; parameters: method as in earlier work; conditions: nude mice, ref unpublished information, personal communication with Wei Mao on January 1, 2013; cited from earlier work
[3] = test system: vascular endothelial cells lumen; parameters: method as in earlier work; conditions: ref unpublished information, personal communication with Wei Mao on January 1, 2013; read-out: IC50, formation of the vascular endothelial cells lumen; cited from earlier work
[4] = parameters: method as in earlier work; conditions: toxicology experiments; ref unpublished information, personal communication with Wei Mao on January 1, 2013; cited from earlier work
PI3K p110β = conditions: read-out: IC50 against PI3K isoform p110β; ref unpublished information, personal communication with Wei Mao on January 1, 2013; cited from earlier work
[5] = Phase I study, pharmacokinetics of XC-302 in patients; format: in vivo, human
Procedure: Detailed pharmacokinetic were analyzed by taking blood samples before (within 1 hour) and after (every 2 hours) dosing on days 1, 28 of cycle 1. Plasma concentrations of XC-302 were measured with a validated liquid chromatography assay. Pharmacokinetic measures, such as the maximum plasma concentration (Cmax) and area under the time-concentration curve (AUC), were estimated in every patient.

PI3K p110α = conditions: read-out: IC50 against PI3K isoform p110α; ref unpublished information, personal communication with Wei Mao on January 1, 2013; cited from earlier work
PDGFR β = test system: PDGFR β; parameters: method as in earlier work; conditions: ref unpublished information, personal communication with Wei Mao on January 1, 2013; read-out: IC50, receptor tyrosine kinase PDGFR β; cited from earlier work
advanced solid tumors = conditions: ref unpublished information, personal communication with Wei Mao on January 1, 2013, cited from earlier work; for Maximum tolerated dose (MTD): single agent, postprandial
[6] = test system: AKT phosphorylation mediated by EGFR; parameters: method as in earlier work; conditions: ref unpublished information, personal communication with Wei Mao on January 1, 2013; cited from earlier work
[7] = test system: relapsed or refractory non-Hodgkin's lymphoma; experiment: Phase I study, antitumor activity (response, PFS); format: in vivo, human
Procedure: This was a phase I open label, dose-escalation study whose primary objective was to characterize the safety of XC-302 in adult Chinese patients with advanced lymphoma administered on a 28-day cycle. Others were to determine the pharmacokinetics (PK) characteristics and anti-tumor activity. The anti-tumor effects of XC-302 were evaluated every 2 cycles with the Standardized Response Criteria of the National Cancer Institute International Working Group (IWG). Efficacy evaluation for CLL was on account of IWCLL criteria while for NHL, it was analyzed by IWG response criteria. Patients with stable disease or partial remission were allowed to continue therapy until progressive disease or toxicity was observed.

CYP1A2 enzyme = conditions: preliminary study; cited from earlier work
[8] = test system: cell lines with drug resistance mediated by p170/MDR-1 / p-Glycoprotein; parameters: method as in earlier work; conditions: p170/MDR-1 / p-Glycoprotein mediated resistance; ref unpublished information, personal communication with Wei Mao on January 1, 2013; cited from earlier work
[9] = parameters: method as in earlier work; conditions: pre-clinical; ref unpublished information, personal communication with Wei Mao on January 1, 2013; cited from earlier work
PI3K p110δ = conditions: read-out: IC50 against PI3K isoform p110δ; ref unpublished information, personal communication with Wei Mao on January 1, 2013; cited from earlier work
PI3K p110γ = test system: PI3K p110γ; parameters: method as in earlier work; conditions: ref unpublished information, personal communication with Wei Mao on January 1, 2013; read-out: IC50 against PI3K isoform p110γ; cited from earlier work

## CC[C@H](Nc1ncnc2[nH]cnc12)c1nc2cccc(F)c2c(=O)n1-c1ccccc1 [Idelalisib]
p110δ
  IC50: […]
MCL
  Asymptomatic grade 3 or greater serum transaminase elevations: 35%
[1]; iNHL, n = 64
  Asymptomatic grade 3 or greater serum transaminase elevations: 25%
[1]; marginal-zone lymphoma subtype
  Response rate: 33%

## c1cnc2ccc(Nc3nc(NC4CC4)c4nc[nH]c4n3)cc2c1 [XC-302, Puquitinib Mesylate]
KDR
  IC50: 1000 nM
[2]
  Anti-tumor efficacy in xenografts: obvious anti-tumor efficacy
[3]
  IC50: 100 nM
[4]
  Toxicity: low toxicity
25 mg BID, n = 3
  ALT, increased, adverse event, any grade: 2 n
  Anemia, adverse event, any grade: 1 n
  Creatinine, increased, adverse event, any grade: 1 n
  Fecal occult blood, adverse event, any grade: 1 n
  Hematuresis, adverse event, any grade: 1 n
  Leukopenia, adverse event, any grade: 1 n
  Thrombocytopenia, adverse event, any grade: 1 n
37.5 mg BID, n = 9
  ALT, increased, adverse event, any grade: 5 n
  AST, increased, adverse event, any grade: 1 n
  Anemia, adverse event, any grade: 4 n
  Anemia, adverse event, grade ≥3: 1 n
  Constipation, adverse event, any grade: 1 n
  Fecal occult blood, adverse event, any grade: 2 n
  Hematuresis, adverse event, any grade: 1 n
  Leukopenia, adverse event, any grade: 1 n
  Nausea, adverse event, any grade: 1 n
  Neutropenia, adverse event, any grade: 2 n
  Proteinuria, adverse event, any grade: 1 n
  Pyrexia, adverse event, any grade: 2 n
  S-T-segment change, adverse event, any grade: 1 n
  Thrombocytopenia, adverse event, any grade: 2 n
  Thrombocytopenia, adverse event, grade ≥3: 1 n
  URI, adverse event, any grade: 2 n
50 mg BID group
  Patients with dose-limiting toxicity (grade 3 transaminases elevation): Four
50 mg BID, n = 9
  ALT, increased, adverse event, any grade: 7 n
  ALT, increased, adverse event, grade ≥3: 4 n
  AST, increased, adverse event, any grade: 6 n
  AST, increased, adverse event, grade ≥3: 1 n
  Anemia, adverse event, any grade: 2 n
  Arrhythmia, adverse event, any grade: 1 n
  Constipation, adverse event, any grade: 1 n
  Creatinine, increased, adverse event, any grade: 1 n
  Diarrhea, adverse event, any grade: 2 n
  Fecal occult blood, adverse event, any grade: 1 n
  Hematuresis, adverse event, any grade: 1 n
  Leukopenia, adverse event, any grade: 2 n
  Nausea, adverse event, any grade: 1 n
  Neutropenia, adverse event, any grade: 3 n
  Neutropenia, adverse event, grade ≥3: 2 n
  Peripheral nerve toxicity, adverse event, any grade: 1 n
  Pyrexia, adverse event, any grade: 2 n
  Rash, adverse event, any grade: 2 n
  S-T-segment change, adverse event, any grade: 1 n
  Thrombocytopenia, adverse event, any grade: 1 n
  Thrombocytopenia, adverse event, grade ≥3: 1 n
  URI, adverse event, any grade: 2 n
25-mg or 37.5-mg doses
  DLT events: No DLT events
Overall
  ALT, increased, adverse event, any grade: 14 n
  ALT, increased, adverse event, grade ≥3: 4 n
  AST, increased, adverse event, any grade: 7 n
  AST, increased, adverse event, grade ≥3: 1 n
  Anemia, adverse event, any grade: 7 n
  Arrhythmia, adverse event, any grade: 1 n
  Constipation, adverse event, any grade: 2 n
  Creatinine, increased, adverse event, any grade: 2 n
  Diarrhea, adverse event, any grade: 2 n
  Fecal occult blood, adverse event, any grade: 4 n
  Hematuresis, adverse event, any grade: 3 n
  Leukopenia, adverse event, any grade: 4 n
  Nausea, adverse event, any grade: 2 n
  Neutropenia, adverse event, any grade: 5 n
  Neutropenia, adverse event, grade ≥3: 2 n
  Peripheral nerve toxicity, adverse event, any grade: 1 n
  Proteinuria, adverse event, any grade: 1 n
  Pyrexia, adverse event, any grade: 4 n
  Rash, adverse event, any grade: 2 n
  S-T-segment change, adverse event, any grade: 2 n
  Thrombocytopenia, adverse event, any grade: 4 n
  Thrombocytopenia, adverse event, grade ≥3: 2 n
  URI, adverse event, any grade: 4 n
All 21 patients
  Anemia, frequency of AE: 33.3%
  Creatinine elevation, frequency of AE: 9.5%
  Elevated alanine transaminase (ALT), frequency of AE: 66.7%
  Elevated aspartate transaminase (AST), frequency of AE: 33.3%
  Fecal occult blood, frequency of AE: 19.0%
  Hematuresis, frequency of AE: 14.3%
  Myocardial ischemia, frequency of AE: 9.5%
  Neutropenia, frequency of AE: 23.8%
  Rash, frequency of AE: 9.5%
  Thrombocytopenia, frequency of AE: 19.0%
  Upper respiratory infection (URI), frequency of AE: 19.0%
All patients
  Drug-related hyperglycemia: no XC302-related hyperglycemia
Twice a day, 28-day cycle, NHL patients
  Maximum tolerated dose (MTD): 50 mg
PI3K p110β
  IC50: 699 nM
[5]; 25 mg to 50 mg, days 1 and 28
  Pharmacokinetic response (AUClast and Cmax vs dose): linear
[5]; human, serum, oral, 25 to 50 mg BID, patients, read-out: Time of peak serum concentration after administration
  Tmax: ~4 h
PI3K p110α
  IC50: 767 nM
PDGFR β
  IC50: 1000 nM
Advanced solid tumors; advanced solid tumors
  Disease control rate: 52.5%
Advanced solid tumors; clinical PK monitoring
  Oral bioavailability: good oral bioavailability
Advanced solid tumors; continuous daily schedule
  Maximum tolerated dose (MTD): 75 mg
Advanced solid tumors; twice daily (BID)
  Maximum tolerated dose (MTD): 50 mg
[6]
  IC50: 100 nM
[7]; 25 mg BID, n = 3
  Complete response: 0 n
  Minor response: 0 n
  Partial response: 0 n
  Progressive disease: 0 n
  Stable disease: 3 n
[7]; 37.5 mg BID, n = 9
  Complete response: 0 n
  Minor response: 0 n
  Partial response: 0 n
  Progressive disease: 8 n
  Stable disease: 1 n
[7]; 50 mg BID (n = 7)
  Complete response: 0 n
  Minor response: 1 n
  Overall response rate: 2 n
  Partial response: 1 n
  Progressive disease: 3 n
  Stable disease: 2 n
[7]; All (n = 21; 19 evaluable)
  Complete response: 0 n
  Minor response: 1 n
  Overall response rate: 2 n
  Partial response: 1 n
  Progressive disease: 11 n
  Stable disease: 6 n
[7]; all evaluable patients
  Progression free survival (PFS), median (95% CI): 1.9 (95% CI, 1.7 to 2.0) months and 1.9 months
[7]; printed as for all 19 patients
  Duration of response, median (range): 7.1 (6.9 to 7.3) months
[7]; the two responding patients, individual values
  Time to response: 1.8 months and 1.84 months
CYP1A2 enzyme
  Inhibition of CYP1A2 enzyme activity: irreversibly inhibited
[8]
  Sensitivity of drug-resistant cell lines: similarly sensitive
[9]
  Absolute bioavailability: high absolute bioavailability
  Absorption: rapidly absorbed
PI3K p110δ
  IC50: 2.8 nM
PI3K p110γ
  IC50: 89.7 nM
